Experimental data: patent publication US11207312B2, “Metallo-beta-lactamase inhibitors and methods of use thereof” (priority 2017, dated 2021)

Legend:
[1] = target: IMP-1 (Serratia marcescens, UniProt P52699); assay: biochemical; conditions: CCF2-FA fluorescence assay, 2 hours at 25° C.; read-out: IMP1 IC50
Outline: (§1)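 In 100 mM phosphate pH 7 containing Tween-20 and ZnSO4, NDM-1 (1 pM), IMP-1 (2 pM) or VIM-1 (30 pM) hydrolysed 1.25 μM CCF2-FA over 2 hours at 25° C with inhibitor present. Readout was 405/460 nm fluorescence.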

[2] = target: VIM-1 (Pseudomonas aeruginosa (strain ATCC 15692 / DSM 22644 / CIP 104116 / JCM 14847 / LMG 12228 / 1C / PRS 101 / PAO1), UniProt A0A0F7KYQ8); assay: biochemical; conditions: CCF2-FA fluorescence assay, 2 hours at 25° C.; read-out: VIM1 IC50
Outline: as §1

[3] = test system: Serratia marcescens expressing IMP-1 (CL5741); format: cell-based; conditions: with imipenem 1 μg/ml; 95% inhibition of bacterial growth
Outline: (§2)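 MITC95 denotes the minimal test-compound level that, combined with 1 μg/ml imipenem, blocks 95% of bacterial growth, measured by absorbance. Overnight-grown clinical isolates were diluted 1:100 in CAMHB and incubated with both agents at 35° C for 22–24 h.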

[4] = test system: Escherichia coli expressing NDM-1 (CLB30016); format: cell-based; conditions: with imipenem 1 μg/ml; 95% inhibition of bacterial growth
Outline: as §2

[5] = test system: Klebsiella pneumoniae expressing VIM-1 (IHMA599644); format: cell-based; conditions: with imipenem 1 μg/ml; 95% inhibition of bacterial growth
Outline: as §2

[6] = test system: P. aeruginosa MB9798 (efflux+, IMP-1 plasmid); conditions: for MB9798 MITC95 P. aeruginosa uM Efflux WT: efflux + (MB9798) strain, imipenem at 2 μg/mL, in the presence of a class A, C, D serine β-lactamase inhibitor closely related to relebactam; for Efflux ratio: fold difference between efflux+ (MB9798) and efflux− (MB9799) strains
Outline: (§3)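 PAO1-derived isogenic pair (oprD+, inducible AmpC), efflux+ MB5919 or efflux− MB5890 parent, carrying an electroporated IMP-1 plasmid from a clinical isolate. Microbroth MIC with fixed imipenem and/or ceftazidime (usually CLSI breakpoint) plus fixed class A/C inhibitor; MBL inhibitor serially titrated, concentration restoring susceptibility recorded.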

[7] = target: VIM-2 (Escherichia coli, UniProt Q5U7L7); assay: biochemical; conditions: CCF2-FA fluorescence assay; read-out: VIM2 IC50
[8] = target: NDM-1 (Klebsiella pneumoniae, UniProt C7C422); assay: biochemical; format: biochemical; conditions: CCF2-FA fluorescence assay, 2 hours at 25° C.
Outline: as §1

[9] = test system: P. aeruginosa MB9799 (efflux-, IMP-1 plasmid); format: cell-based, Pseudomonas aeruginosa; conditions: efflux − (MB9799) strain; imipenem at 2 μg/mL; in the presence of a class A, C, D serine β-lactamase inhibitor closely related to relebactam
Outline: as §3

NDM-1, sequence (C7C422 whole entry, looked up, species assumed): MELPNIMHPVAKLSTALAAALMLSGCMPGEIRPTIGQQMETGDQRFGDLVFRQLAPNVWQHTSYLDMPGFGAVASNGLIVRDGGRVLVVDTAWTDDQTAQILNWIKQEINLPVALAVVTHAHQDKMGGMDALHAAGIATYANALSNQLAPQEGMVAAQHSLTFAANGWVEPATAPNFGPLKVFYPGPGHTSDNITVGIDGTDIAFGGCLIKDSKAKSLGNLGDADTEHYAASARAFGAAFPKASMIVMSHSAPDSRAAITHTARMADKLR
IMP-1, sequence (P52699 whole entry, looked up, species assumed): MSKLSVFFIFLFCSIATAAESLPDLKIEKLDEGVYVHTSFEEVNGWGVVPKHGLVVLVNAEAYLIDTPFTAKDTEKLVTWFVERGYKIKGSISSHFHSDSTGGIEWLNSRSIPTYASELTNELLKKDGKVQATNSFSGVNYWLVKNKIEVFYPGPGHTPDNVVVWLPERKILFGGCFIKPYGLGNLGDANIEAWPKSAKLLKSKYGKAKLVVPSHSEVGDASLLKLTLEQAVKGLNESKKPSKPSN

SMILES	IC50 [1] [nM]	IC50 [2] [nM]	CL5741 S. marcescens MITC95 IMP [3] [µM]	CLB30016 E. coli MITC95 NDM [4] [µM]	IHMA599644 K. pneumoniae MITC95 VIM [5] [µM]	MB9798 MITC95 P. aeruginosa uM Efflux WT [6] [µM]	Efflux ratio [6]	IC50 [7] [nM]	IC50 [8] [nM]	MB9799 MITC95 P. aeruginosa uM Efflux Mutant [9] [µM]
NS(=O)(=O)c1c(S(=O)(=O)N[C@@H]2CCNC2)ccc(N2CCC(OCCO)CC2)c1-c1nnn[nH]1 [Example 88, 4-[4-(2-hydroxyethoxy)piperidin-1-yl]-N1-[(3R)-pyrrolidin-3-yl]-3-(1H-tetrazol-5-yl)benzene-1,2-disulfonamide]	0.13	0.19	12.50	12.50	12.50	6.25	1.00	0.97	0.08	6.25
NS(=O)(=O)c1c(S(=O)(=O)N[C@@H]2CCNC2)ccc(N2CCC(CF)CC2)c1-c1nnn[nH]1 [Example 89, 4-[4-(fluoromethyl)piperidin-1-yl]-N1-[(3R)-pyrrolidin-3-yl]-3-(1H-tetrazol-5-yl)benzene-1,2-disulfonamide]	0.61	0.21	3.13	1.56	12.50	3.13	2.00	0.66	0.21	1.56
NS(=O)(=O)c1c(S(=O)(=O)N[C@@H]2CCNC2)ccc(N2CCC(C(F)F)CC2)c1-c1nnn[nH]1 [Example 90, 4-[4-(difluoromethyl)piperidin-1-yl]-N1-[(3R)-pyrrolidin-3-yl]-3-(1H-tetrazol-5-yl)benzene-1,2-disulfonamide]	0.77	0.34	3.13	3.13	3.13	6.25	4.00	1.02	0.43	1.56
NS(=O)(=O)c1c(S(=O)(=O)N[C@@H]2CCNC2)ccc(N2CCC(F)(CO)CC2)c1-c1nnn[nH]1 [Example 91, 4-[4-fluoro-4-(hydroxymethyl)piperidin-1-yl]-N1-[(3R)-pyrrolidin-3-yl]-3-(1H-tetrazol-5-yl)benzene-1,2-disulfonamide]	1.26	0.47	3.13	3.13	6.25	3.13	2.00	1.65	0.42	1.56
NC(=O)C1CCN(c2ccc(S(=O)(=O)N[C@@H]3CCNC3)c(S(N)(=O)=O)c2-c2nnn[nH]2)C1 (stereo partly drawn) [Example 92, 1-{4-[(3R)-pyrrolidin-3-ylsulfamoyl]-3-sulfamoyl-2-(1H-tetrazol-5-yl)phenyl}pyrrolidine-3-carboxamide]	0.31	0.3	1.56	0.78	3.13	1.56	1.00	0.74	0.38	1.56
NS(=O)(=O)c1c(S(=O)(=O)N[C@@H]2CCNC2)ccc(N2CCN(CCCO)CC2)c1-c1nnn[nH]1 [Example 93, 4-[4-(3-hydroxypropyl)piperazin-1-yl]-N1-[(3R)-pyrrolidin-3-yl]-3-(1H-tetrazol-5-yl)benzene-1,2-disulfonamide]	2.52	3.62	0.20	0.39	1.56	3.13	2.00	6.73	1.71	1.56
NC(=O)C1CCN(c2ccc(S(=O)(=O)N[C@@H]3CCNC3)c(S(N)(=O)=O)c2-c2nnn[nH]2)CC1 [Example 94, 1-{4-[(3R)-pyrrolidin-3-ylsulfamoyl]-3-sulfamoyl-2-(1H-tetrazol-5-yl)phenyl}piperidine-4-carboxamide]	0.5	0.27	6.25	3.13	6.25	3.13	1.00	1.18	0.18	3.13
CC(=O)N[C@@H]1CCN(c2ccc(S(=O)(=O)N[C@@H]3CCNC3)c(S(N)(=O)=O)c2-c2nnn[nH]2)C1 [Example 95, N-[(3R)-1-{4-[(3R)-pyrrolidin-3-ylsulfamoyl]-3-sulfamoyl-2-(1H-tetrazol-5-yl)phenyl}pyrrolidin-3-yl]acetamide]	1.55	1.42	6.25	6.25	12.50	6.25	2.00	6.09	4.31	3.13
NS(=O)(=O)c1c(S(=O)(=O)N[C@@H]2CCNC2)ccc(N2CC[C@H](CO)C2)c1-c1nnn[nH]1 [Example 96, 4-[(3S)-3-(hydroxymethyl)pyrrolidin-1-yl]-N1-[(3R)-pyrrolidin-3-yl]-3-(1H-tetrazol-5-yl)benzene-1,2-disulfonamide]	0.98	0.53	1.56	3.13	6.25	3.13	2.00	1.02	1.21	1.56
NS(=O)(=O)c1c(S(=O)(=O)N[C@@H]2CCNC2)ccc(N2CC[C@H](O)C2)c1-c1nnn[nH]1 [Example 97, 4-[(3S)-3-hydroxypyrrolidin-1-yl]-N1-[(3R)-pyrrolidin-3-yl]-3-(1H-tetrazol-5-yl)benzene-1,2-disulfonamide]	11.6	2.49	6.25	3.13	12.50	6.25	2.00	4.43	6.21	3.13
NS(=O)(=O)c1c(S(=O)(=O)N[C@@H]2CCNC2)ccc(N2CCC(CCO)CC2)c1-c1nnn[nH]1 [Example 98, 4-[4-(2-hydroxyethyl)piperidin-1-yl]-N1-[(3R)-pyrrolidin-3-yl]-3-(1H-tetrazol-5-yl)benzene-1,2-disulfonamide]	0.13	0.15	6.25	12.50	12.50	3.13	1.00	0.59	0.08	3.13
